Measured values: article PMC5407577, “Functional and genetic evidence that nucleoside transport is highly conserved in Leishmania species: Implications for pyrimidine-based chemotherapy” (International Journal for Parasitology: Drugs and Drug …, 2017)

Experiments:
[1] = target: LmexUU1; type: cell-based, Leishmania mexicana
Description: (§1) Using the standard uptake technique as described for T. brucei and Leishmania species ([Wallace et al., 2002], [Al-Salabi and De Koning, 2005], [Gudin et al., 2006]), the dose- or time-dependent uptake of radiolabeled permeants was investigated.
(§2) Briefly, cells in the mid-to-late logarithmic stage of growth were harvested by centrifugation for 10 min at 1500×g. The cells were washed twice with transport assay buffer (AB: 33 mM HEPES, 98 mM NaCl, 4.6 mM KCl, 0.55 mM CaCl2, 0.07 mM MgSO4, 5.8 mM NaH2PO4, 0.3 mM MgCl2, 23 mM NaHCO3, 14 mM glucose, pH 7.3), resuspended at a density of 10^8 cells ml^−1 in AB, and left for 20–30 min at room temperature to recover from centrifugation stress. One hundred microliters of cell suspension was incubated at ambient temperature for a predetermined time with 100 μl radiolabeled test compound, in the presence or absence of unlabeled substrate or other competitive inhibitors. The incubation was terminated by the addition of ice-cold stop solution (AB containing saturating levels, usually 10 mM, of unlabeled permeant) and centrifugation through oil for 1 min at 13,000 × g. […] Radioactivity was determined by liquid scintillation counting in a Beckman LS6000 TA scintillation counter. Saturation data, inhibition data, and time courses were plotted to equations for linear or non-linear regression (hyperbolic or sigmoid curves), as appropriate. All experiments were performed in triplicate and on at least three independent occasions.

[2] = target: LmajUUT1; experiment: [3H]-uridine uptake by L. major promastigotes, high-affinity uracil-sensitive component; type: cell-based, Leishmania major; conditions: inhibition of 0.25 μM [3H]-uridine uptake
Description: as §1, §2

[3] = target: LmajNT1; experiment: [3H]-uridine uptake by L. major promastigotes, low-affinity component; type: cell-based, Leishmania major; conditions: inhibition of 0.25 μM [3H]-uridine uptake
Description: as §1, §2

[4] = target: LmajNT1; experiment: [3H]-thymidine uptake by L. major promastigotes; type: cell-based, Leishmania major
Description: as §1, §2
Subsequent experiments were performed with a 5 min incubation time.

[5] = target: LmexNT1; type: cell-based, Leishmania mexicana; conditions: inhibition of 0.25 μM [3H]-uridine uptake in the presence of 1 mM uracil
Description: as §1, §2

[6] = test system: L. mexicana promastigotes WT; experiment: Alamar blue drug sensitivity assay, L. mexicana WT; type: cell-based, Leishmania mexicana; conditions: Leishmania mexicana, 72 h, WT promastigotes, 72 h + 48 h with dye; n ≥ 4; read-out: EC50
Description: (§3) Sensitivity assays of Leishmania strains to various drugs using the viability dye resazurin (Alamar Blue) (Sigma-Aldrich) were performed using a protocol adapted from [Räz et al. (1997)], as described ([Al-Salabi et al., 2003], [Gould et al., 2008]). Pentamidine and diminazene were used as non-nucleoside controls and were obtained from Sigma-Aldrich, as were many purines, pyrimidines, and analogs, with the exceptions of 2-thiouridine and 4-thiouridine (TriLink BioTechnologies, San Diego, CA); 5′-deoxyuridine, and 2′-3′-dideoxyuridine (Carbosynth, Compton, UK); 5-fluoro-2′-deoxyuridine (Fluka); and 2-thiouracil (ICN Biomedicals, Cambridge, UK). A preliminary promastigote culture was diluted to a density of 2 × 10^6 cells/ml, of which 100 μl was added to wells of 96-well plates pre-loaded with 100 μl of doubling dilutions of test compounds, resulting in a final density of 1 × 10^6 cells/ml; the dilutions were over 2 rows of the plate (23 concentrations), with the last well containing only medium and serving as the no-drug control. The plates were incubated at 25 °C for 72 h before adding the Alamar Blue dye (20 μl of 12.5 mg resazurin sodium salt (Sigma) in 100 ml phosphate buffered saline (PBS; pH 7.4)). Since Leishmania parasites metabolize the Alamar Blue dye slower than trypanosomes ([Gould et al., 2008]), the cells were incubated with the dye for a further period of 48 h before measuring the fluorescence, using a FLUOstar Optima fluorimeter (BMG Labtech) at wavelengths of 544 nm for excitation and 620 nm for emission. […] Each experiment was performed independently at least 4 times; statistical significance was determined using Student's unpaired t-test.

[7] = test system: Lmex5F2′dURes; experiment: microbe, parasite or virus in culture; type: cell-based, Leishmania mexicana
Description: as §3

[8] = test system: Lmex5FURes; experiment: microbe, parasite or virus in culture; type: cell-based, Leishmania mexicana
Description: as §3

[9] = test system: L. major promastigotes WT; experiment: Alamar blue drug sensitivity assay, L. major WT; type: cell-based, Leishmania major; conditions: Leishmania major, 72 h, WT promastigotes, 72 h + 48 h with dye; n ≥ 4; read-out: EC50
Description: as §3

[10] = test system: Lmaj5F2′dURes; experiment: microbe, parasite or virus in culture; type: cell-based, Leishmania major
Description: as §3

[11] = test system: Lmaj5FURes; experiment: microbe, parasite or virus in culture; type: cell-based, Leishmania major
Description: as §3

[12] = test system: L. major promastigotes; experiment: metabolomic analysis of treated L. major promastigotes; type: cell-based, Leishmania major; conditions: 100 μM, 8 h
Description: (§4) Metabolomics analysis of the Leishmania promastigotes was undertaken in triplicate, exactly as described ([Ali et al., 2013a]). Briefly, cells were grown to log phase stage, resuspended at 2 × 10^6 cells/ml in 50 ml HOMEM/FBS and incubated 8 h with 100 μM of test compound (standard conditions) before transfer to a 50-ml centrifuge tube for instantaneous cooling (dry ice/ethanol bath, 4 °C) and centrifugation (2500 rpm, 10 min, 4 °C). The pellet was lysed with 200 μl of chloroform/methanol/water (1:3:1 v/v/v) containing mass spectrometry standards, and vigorous mixing (1 h, 4 °C); cell debris was removed by centrifugation and the metabolite extracts were stored in HPLC vials at −80 °C. Control samples were prepared in parallel and included untreated cells, unused growth medium, test compound solution and extraction solvent blanks. The analysis used a hydrophilic interaction liquid chromatography (HILIC-LC) fitted with a zwitterionic ZIC-pHILIC column (Merck Sequant), coupled to high resolution mass spectrometry (MS) using a Thermo Q-Exactive, and metabolomic data outputs were analyzed using the IDEOM application (http://mzmatch.sourceforge.net/ideom.php) with default parameters ([Creek et al., 2012]) exactly as described ([Ali et al., 2013a]). The lower limit of detection was set to 500 intensity units for all reported metabolites, in order to prevent spurious identification of low level signals.
(§5) The mechanism of action of the fluorinated pyrimidines was investigated using a metabolomics approach, where promastigotes of L. mexicana and L. major were incubated for 8 h with 100 μM of either 5-FU, 5F-2′dUrd or 5F-Urd prior to metabolite extraction and mass spectrometric analysis as described ([Ali et al., 2013a], [Alkhaldi et al., 2015]). These conditions were chosen to allow for significant metabolite accumulation while not affecting cell viability or growth rate, which could broadly affect metabolite levels.

[13] = test system: L. mexicana promastigotes; experiment: metabolomic analysis of treated L. mexicana promastigotes; type: cell-based, Leishmania mexicana; conditions: 100 μM, 8 h
Description: as §4, §5

[14] = n = 3, SEM, untreated: not detected (<500)

With `O=c1ccn([C@H]2C[C@H](O)[C@@H](CO)O2)c(=O)[nH]1` [2′-deoxyuridine] the Ki ([1]; inhibition of [3H]-uracil uptake, 4 min) was 9.3 ± 2.6 µM, the “maximal inhibition of [3H]-uracil transport” value ([1]; n = 3) was “approximately 85%” and the Ki [2] was 24.9 ± 8.6 µM. For the same compound, the Ki [3] was 24.9 ± 8.6 µM and the Ki ([4]; inhibition of 0.25 μM [3H]-thymidine uptake (total LmajNT1.1 + LmajNT1.2), 5 min) was 112 ± 17 µM.

Compound `O=c1[nH]c(=O)n([C@H]2C[C@H](O)[C@@H](CO)O2)cc1F` [5F-2′dUrd, 5-Fluoro-2′-deoxyuridine] has a Ki [5] of 6.99 ± 0.11 µM, a Ki [4] of 29.7 ± 2.1 µM and an EC50 [6] of roughly 1.5 µM. The EC50 ([7]; Leishmania mexicana) was greater than 5000 µM, the “RF (Resistance Factor = IC50 (resistant clone)/IC50 (WT))” value (shortened to “RF”) ([7]; Lmex5F2′dURes vs L. mexicana WT) was greater than 3500 and the EC50 ([8]; Leishmania mexicana) was 1.5 ± 0.2 µM. For the same compound, the “RF” value ([8]; Lmex5FURes vs L. mexicana WT) was 1.07, the EC50 [9] was roughly 1.5 µM and the EC50 ([10]; Leishmania major) was 381 ± 83 µM. For the same compound, the “RF” value ([10]; Lmaj5F2′dURes vs L. major WT) was 224, the EC50 ([11]; Leishmania major) was 6.1 ± 0.5 µM and the “RF” value ([11]; Lmaj5FURes vs L. major WT) was 3.6. The dCMP peak intensity [12, 14] was “not detected”, the dUrd peak intensity ([12]; untreated: 712 ± 105) was 7615 ± 1236^∗ arbitrary units and the dCTP peak intensity ([12]; untreated: 995 ± 109) was 7036 ± 1684 arbitrary units. It also gave a dAdo peak intensity ([12]; untreated: 2992 ± 173) of 14181 ± 3275 arbitrary units, a dAMP peak intensity ([12]; untreated: 6192 ± 910) of 14740 ± 2815 arbitrary units and a dADP peak intensity ([12]; untreated: not detected) of 6493 ± 3261 arbitrary units. For the same compound, the dCDP peak intensity ([12]; untreated: not detected) was 6617 ± 188^∗∗∗ arbitrary units, the dTTP intensity ([13]; detection limit 500 units (Fig. 13F)) was “Not detectable” and the dCMP peak intensity [13, 14] was 6006 ± 3089 arbitrary units. The dUrd peak intensity ([13]; untreated: 304 ± 155) was 5414 ± 717^∗ arbitrary units, the dADP peak intensity ([13]; untreated: 1458) was 8367 ± 1844^∗ arbitrary units and the dAdo peak intensity ([13]; untreated: 2585 ± 811) was 5412 ± 1699 arbitrary units. For the same compound, the dCDP peak intensity ([13]; untreated: not detected) was 4451 ± 1188^∗ arbitrary units and the dCTP peak intensity ([13]; untreated: not detected) was 1569 ± 244 arbitrary units.
